{"source": "paper PMC8469417", "about": "“Is It Possible to Create Antimicrobial Peptides Based on the Amyloidogenic Sequence of Ribosomal S1 Protein of P. aeruginosa?” (International Journal of Molecular Sciences, 2021)", "key": {"[1]": {"system": "P. aeruginosa strain PA103", "experiment": "Broth microdilution, strain PA103", "type": "cell-based, Pseudomonas aeruginosa", "settings": "LB medium, 2% DMSO, 24 h, 37 °C, 600 nm", "procedure": "The R23R, R23L, R23R*, R23L* peptides and an antibiotic (gentamicin sulfate) were dissolved in 100% DMSO and solutions were prepared with a final DMSO concentration of 2% (volume/volume) to test their activity.\nStationary culture of P. aeruginosa strain PA103 was diluted 100 times in fresh LB medium with peptides R23R and R23L or gentamicin sulfate (positive control) at various concentrations. After 24 h at 37 °C co-incubation bacterial cells with peptides, the optical densities of the cultures were measured at a wavelength of 600 nm in a plate reader iMac (BioRad Laboratories, Hercules, CA, USA). Each test was carryout in three replicates.\nIn the next experiment to prepare a stationary culture of P. aeruginosa, strain PA103, a colony was inoculated from a Petri dish in 1.5 mL of liquid LB medium and set to grow for 24 h at 37 °C and with stirring at 180 rpm. In the experiment, we used a culture with an initial concentration of ≈10^6–10^7 CFU/mL (10 μL), sterile LB medium (80 μL), peptides R23R* and R23L* diluted in 20% (volume/volume) DMSO or the antibiotic gentamicin sulfate as a positive control (10 μL). […] Optical density was measured in a plate reader iMac (BioRad Laboratories, Hercules, CA, USA) at a wavelength of 600 nm every hour from 0 h to 24 h. Each sample is measured in duplicate."}, "[2]": {"system": "P. aeruginosa strain PA103", "experiment": "Inhibition zone assay on agar, strain PA103", "type": "cell-based, Pseudomonas aeruginosa", "settings": "24 h", "procedure": "(§1) The R23R, R23L, R23R*, R23L* peptides and an antibiotic (gentamicin sulfate) were dissolved in 100% DMSO and solutions were prepared to test their activity.\nThe culture of the studied bacteria (P. aeruginosa strain PA103) was diluted 10 times in Luria-Bertani (LB) medium with non-solidified 0.75% agar (w/w) on sterile Petri dishes. […]"}, "[3]": {"settings": "electron microscopy and fluorescence of thioflavin T; cited from earlier work", "text": "In accordance with the strategy presented in Figure 1, we developed hybrid peptides that contained a cell penetrating peptide (CPP) (fragment of Tat-peptide) at the N-termini and an amyloidogenic sequence at the C-termini, which was predicted using bioinformatics tools. The two sites were linked by four glycines. Thus, the construction of the fusion peptide was as follows: “CPP”+”linker GGGG”+ “predicted amyloidogenic-fragment”. The LHITDMAWKR and ITDFGIFIGL sequences were used as amyloidogenic fragments."}, "[4]": {"system": "P. aeruginosa strain ATCC 9027", "experiment": "Antimicrobial test on agar, strain ATCC 9027", "type": "cell-based, Pseudomonas aeruginosa", "procedure": "as §1\n(§2) The P. aeruginosa strain ATCC 28753 was inoculated with a wire loop in 5 mL of LB medium and was incubated at 37 °C. After 12 h, plastic Petri dishes were poured with LB medium (about 5 mL) with 0.75% agar. Before pouring, 50 μL of an overnight culture of the test bacteria was added to each dish. The R23R, R23L, R23R*, and R23L* peptides were finally dissolved in 2% (volume/volume) DMSO and was tested with different concentrations with gentamicin sulfate as control of antimicrobial effect. The medium was dried and 10 μL of the prepared peptides were applied to it in accordance with the labeling. Then the dishes were placed in a thermostat and incubated for 12 h at a temperature of 37 °C. Antimicrobial activity was recorded by the presence of transparent zones of no growth around drops with peptide.\nStudies with the P. aeruginosa strain ATCC 9027 were carried out similarly to the P. aeruginosa strain ATCC 28753. The exception was the amount of LB medium. Sterile plastic Petri dishes were filled with LB medium (about 25 mL) with 0.75% agar and 250 µL of an overnight culture of the test bacteria was added to each dish."}, "[5]": {"system": "human breast duct carcinoma BT474 cells", "experiment": "Cytotoxicity assay, BT474 cells", "type": "cell-based", "settings": "up to 8 µM, 24 h; resazurin assay, calcein-AM / propidium iodide staining, triplicate", "procedure": "(§3) Cell viability was estimated as described previously by resazurin cell viability assay. Each assay was done in triplicate. All measurements were carried out on the control samples that were not treated with cytotoxic substances. We used human diploid fibroblasts and human breast duct carcinoma BT474 cells obtained from the American Type Cell Culture Collection (Manassas, Virginia, VA, USA). BT474 cells were cultured in DMEM medium (Sigma-Aldrich, St. Louis, MO, USA) supplemented with 10% fetal bovine serum (Gibco, Waltham, MA, USA), 40 μg/mL gentamicin sulfate (Sigma-Aldrich, St. Louis, MO, USA), at 37° C, under conditions of 5% content CO2 in the air. The analysis of living and dead cells was carried out using BD Accuri C6 flow cytometer (BD Bioscience, San Jose, CA, USA)."}, "[6]": {"system": "human diploid fibroblasts", "experiment": "Cytotoxicity assay, human fibroblasts", "type": "cell-based", "settings": "up to 8 µM, 24 h; resazurin assay, calcein-AM / propidium iodide staining, triplicate", "procedure": "as §3"}, "[7]": {"system": "P. aeruginosa strain ATCC 28753", "type": "cell-based, Pseudomonas aeruginosa", "settings": "10 µL drops on LB 0.75% agar, 2% DMSO, 12 h, 37 °C", "procedure": "as §1, §2"}}, "note": "Entries after “also recorded” stand apart in the source; their conditions may differ. Structures can show the parent of a compound that is named as a salt. Ends that are not written are not given here.", "data": [{"compound": "CNC(C)C1CCC(N)C(OC2C(N)CC(N)C(OC3OCC(C)(O)C(NC)C3O)C2O)O1", "note": "(centres unmarked) [gentamicin sulfate]", "values": [{"measurement": "Optical density", "setting": "[1]; 174 µM", "result": "zero"}, {"measurement": "Optical density", "setting": "[1]; 1740 µM", "result": "zero"}, {"measurement": "MIC", "setting": "[2]; Pseudomonas aeruginosa, PA103, drops on LB 0.75% agar, 20% DMSO, zones of inhibition, read-out: minimum inhibitory concentration (MIC)", "result": 170, "unit": "µM"}]}, {"compound": "ITDFGIFIGL [amyloidogenic fragment from the fifth domain of ribosomal S1 protein of P. aeruginosa]", "values": [{"measurement": "amyloid-like properties (in words)", "setting": "[3]", "result": "exhibited amyloid-like properties"}]}, {"compound": "RKKRRQRRRGG-Sar [R12-Sar, CPP fragment with GG-Sar, without amyloidogenic part]", "values": [{"measurement": "antimicrobial activity on agar (in words)", "setting": "[4]; drops on LB 0.75% agar, 3.75-3750 µM tested, zones of inhibition", "result": "did not exhibit antimicrobial activity"}, {"measurement": "antibacterial properties on agar", "setting": "[4]; peptide 3.75 µM", "result": "Non-AMP"}, {"measurement": "antibacterial properties on agar", "setting": "[4]; peptide 37.5 µM", "result": "Non-AMP"}, {"measurement": "antibacterial properties on agar", "setting": "[4]; peptide 375 µM", "result": "Non-AMP"}, {"measurement": "antibacterial properties on agar", "setting": "[4]; peptide 3750 µM", "result": "Non-AMP"}, {"measurement": "antimicrobial activity on agar (in words)", "setting": "[2]; drops on LB agar, b51 states it for bacteria grown on agar in general", "result": "did not exhibit antimicrobial activity"}, {"measurement": "antibacterial properties on agar", "setting": "[2]; peptide 6.56 µM", "result": "Non-AMP"}, {"measurement": "antibacterial properties on agar", "setting": "[2]; peptide 65.6 µM", "result": "Non-AMP"}, {"measurement": "antibacterial properties on agar", "setting": "[2]; peptide 656 µM", "result": "Non-AMP"}, {"measurement": "antibacterial properties on agar", "setting": "[2]; peptide 6560 µM", "result": "Non-AMP"}]}, {"compound": "RKKRRQRRRGGGGITDFGIFIGL [R23L]", "values": [{"measurement": "cytotoxic effect / cell viability (in words)", "setting": "[5]", "result": "remained alive; also recorded: did not have a toxic effect"}, {"measurement": "cytotoxic effect / cell viability (in words)", "setting": "[6]", "result": "remained alive; also recorded: did not have a toxic effect"}, {"measurement": "MIC", "setting": "[7]", "result": "about 300 µM"}]}, {"compound": "RKKRRQRRRGGGGLHITDMAWKR [R23R]", "values": [{"measurement": "cytotoxic effect / cell viability (in words)", "setting": "[5]", "result": "remained alive; also recorded: did not have a toxic effect"}, {"measurement": "cytotoxic effect / cell viability (in words)", "setting": "[6]", "result": "remained alive; also recorded: did not have a toxic effect"}, {"measurement": "MIC", "setting": "[7]", "result": "about 300 µM"}]}]}
